Experimental findings from ChEMBL document CHEMBL1145001, “Angiotensin II AT1 receptor antagonists. Clinical implications of active metabolites” (J Med Chem, 2003) are described below.

Data set [1] can be described thus: Acid dissociation constant was evaluated. Format: ADME.
Data set [2] has as its target T1, Type-1 angiotensin II receptor (Homo sapiens, UniProt P30556).
T1 sequence (P30556 whole entry): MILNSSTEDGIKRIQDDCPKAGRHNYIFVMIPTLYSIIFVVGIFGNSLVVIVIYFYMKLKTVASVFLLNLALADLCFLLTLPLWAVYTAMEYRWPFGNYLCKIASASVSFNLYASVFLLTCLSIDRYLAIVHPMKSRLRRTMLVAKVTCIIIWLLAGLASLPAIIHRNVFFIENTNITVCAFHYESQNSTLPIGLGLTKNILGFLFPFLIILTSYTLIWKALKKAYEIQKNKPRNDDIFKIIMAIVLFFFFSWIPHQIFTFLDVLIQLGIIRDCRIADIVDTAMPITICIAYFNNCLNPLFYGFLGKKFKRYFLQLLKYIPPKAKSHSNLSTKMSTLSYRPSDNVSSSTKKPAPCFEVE
Briefly: Compound was tested for inhibition against Angiotensin II receptor, type 1.

Data set [3] in a line: Effective concentration of compound to stimulate 300% increase of growth hormone secretion. Format: functional.
Data set [4] addresses T2, Type-1 angiotensin II receptor (Homo sapiens) (UniProt P30556).
T2 sequence (whole entry): T1 sequence (P30556 whole entry)
Briefly: Relative binding affinity of compound to Angiotensin II receptor, type 1 was determined.

A short description of data set [5]: Half life of compound was determined. Format: ADME.
Data set [6] can be described thus: Total clearance value was evaluated. Format: ADME, organism-based. The note with it: in vivo.
Data set [7] has as its target T2, Type-1 angiotensin II receptor (Homo sapiens). Briefly: Inhibition against Angiotensin II receptor, type 1.
Data set [8] can be described thus: Renal clearance value was evaluated. Format: ADME, organism-based, Kidney. The settings on record: in vivo.
The nature of data set [9]: Acid dissociation value was evaluated. The format is ADME.
The target of data set [10] is T1, Type-1 angiotensin II receptor. Briefly: Inhibition constant against Angiotensin II receptor, type 1 was determined.
Data set [11] can be described thus: Inhibition of bovine cAMP phosphodiesterase. Also noted: species or system Bos taurus.
The nature of data set [12]: Absolute bioavailability of compound was determined. Format: ADME, organism-based. The settings on record: in vivo; read-out: Bioavailabiility.
A short description of data set [13]: Inhibition of Phosphodiesterase 4.
Data set [14] is described as follows: Inhibition of calcium calmodulin-dependent cGMP-Phosphodiesterase 1.
In the next data set the target is Phosphodiesterase 3 (Homo sapiens, UniProt Q14432+Q13370). Briefly: Inhibition of phosphodiesterase 3(PDE 3). The format is protein assay.
Another data set addresses Phosphodiesterase 4 (Homo sapiens, UniProt P27815+Q08499+Q07343+Q08493). Briefly: Inhibition of phosphodiesterase 4 (PDE 4). The format is protein assay.

Regarding `Cc1nc(C)c2c(O)cc(=O)n(Cc3ccc(-c4ccccc4-c4nnn[nH]4)cc3)c2n1` [ENOLTASOSARTAN], the pKa in data set [1] was found to be 9.4. For the same compound, half-maximal inhibition in data set [2] (IC50) was put at 0.17 nM.
As for `CC(C)(N)CC(=O)N[C@@H]1CCc2ccccc2N(Cc2ccc(-c3ccccc3-c3nn[nH]n3)cc2)C1=O`, the 50% effective concentration (EC50) in data set [3] came out at 3 nM. This counts as single-digit nanomolar.
In [4], `CCOc1nc2cccc(C(=O)OC(C)OC(=O)OC3CCCCC3)c2n1Cc1ccc(-c2ccccc2-c2nn[nH]n2)cc1` (stereo not drawn) came in with an AT1 affinity of 280.
In the case of `O=C(O)c1nc(CO)nc2c1CCC(=O)N2Cc1ccc(-c2ccccc2-c2nn[nH]n2)cc1`, it took 44 nM to reach half-maximal inhibition in data set [2] (IC50).
On to `CNC(=O)NCc1ccccc1-c1ccc(CN2C(=O)[C@H](NC(=O)CC(C)(C)N)CCc3ccccc32)cc1`, for which the concentration giving a half-maximal response (EC50) in [3] amounted to 3 nM.
`CCCCc1ncc(/C=C(\Cc2cccs2)C(=O)O)n1Cc1ccc(C(=O)O)cc1` [EPROSARTAN] gave a Relative binding affinity in data set [4] of 100. Besides, the half-life in data set [5] was 5 h. The same compound registered a CLtotal in data set [6] of 2.5 mL/s. Further, in data set [7], the AT1 affinity turned out to be 1.5 nM l-1. The CL_renal in data set [8] is 0.6 mL/s. In addition, in data set [9], the pKa amounted to 4.
`CCCCC1=NC2(CCCC2)C(=O)N1Cc1ccc(-c2ccccc2-c2nnn[nH]2)cc1` [IRBESARTAN] showed a half-life in [5] of 10 h. In addition, the CLtotal in [6] is 5.1 mL/s. The same compound came in with an AT1 affinity in data set [7] of 1.3 nM l-1. The CL_renal in data set [8] turned out to be 0.02 mL/s. In data set [9], this compound displayed a pKa of 4.7.
For the compound `CCCCc1nc(Cl)c(C=O)n1Cc1ccc(-c2ccccc2-c2nn[nH]n2)cc1`, the AT1 affinity in data set [7] was determined as 20 nM l-1. For the same compound, the pKa in [9] is 4.
On to `CC(O)CCC(=O)N(c1ccc(-c2ccccc2-c2nnn[nH]2)cc1)[C@H](C(=O)O)C(C)C` (stereo partly drawn), for which, in [10], the Ki came to 370 nM. In data set [2], this compound had an IC50 of 470 nM.
Consider `CCCCc1nc(Cl)c(C(=O)O)n1Cc1ccc(-c2ccccc2-c2nn[nH]n2)cc1` [CARBOXYLIC ACID METABOLITE], for which 38900 nM corresponded to half-maximal inhibition in [11] (IC50). Further, in data set [4], the Relative binding affinity was determined as 10. Also, the half-life in [5] is 4.4 h. Moreover, the CLtotal in [6] was determined as 0.78 mL/s. Also, the AT1 affinity in data set [7] came to 1.3 nM l-1. The same compound yielded a CL_renal in [8] of 0.4 mL/s. In data set [9], this compound had a pKa of 2.8.
In [9], `CCCCc1nc(Cl)c(CO)n1Cc1ccc(-c2ccccc2-c2nn[nH]n2)cc1` [LOSARTAN POTASSIUM] came in with a pKa of 4.9.
In data set [4], `CCOc1nc2cccc(C(=O)O)c2n1Cc1ccc(-c2ccccc2-c2nnn[nH]2)cc1` yielded a Relative binding affinity of 1. In [5], this compound returned a half-life of more than 9 h. Further, the CLtotal in data set [6] came out at 1 mL/s. Also, the AT1 affinity in data set [7] came to 0.1 nM l-1. Moreover, the CL_renal in data set [8] is more than 7 mL/s. Also, in data set [9], the pKa turned out to be 3.9.
In data set [4], `CCCc1nc2c(C)cc(-c3nc4ccccc4n3C)cc2n1Cc1ccc(-c2ccccc2C(=O)O)cc1` returned a Relative binding affinity of 10. Also, in [5], the half-life is more than 20 h. In [6], this compound had a CLtotal of 19 mL/s. In addition, in data set [7], the AT1 affinity came out at 1 nM l-1. The CL_renal in data set [8] is less than 5 mL/s. Further, the pKa in [9] came to 4.5. For the same compound, in [12], the bioavailability amounted to 43%.
As for `CCCCc1nc(Cl)c(CO)n1Cc1ccc(-c2ccccc2-c2nnn[n-]2)cc1.[K+]` [LOSARTAN POTASSIUM], the half-maximal inhibitory concentration (IC50) was 139000 nM in data set [11], 26000 nM in [13] and 100000 nM in data set [14]. The Relative binding affinity in data set [4] turned out to be 50. The compound further gave a half-life in data set [5] of 1.5 h. For the same compound, the CLtotal in data set [6] stood at 10 mL/s. The compound further yielded an AT1 affinity in [7] of 6.4 nM l-1. The compound further showed a CL_renal in data set [8] of 1.1 mL/s.
As to `CCCCC(=O)N(Cc1ccc(-c2ccccc2-c2nnn[nH]2)cc1)[C@H](C(=O)O)C(C)C`, the half-life in [5] was 6.1 h. The same compound registered a CLtotal in data set [6] of 37 mL/s. The compound further returned an AT1 affinity in data set [7] of 1.4 nM l-1. The compound also had a CL_renal in data set [8] of 4.8 mL/s. In data set [9], this compound had a pKa of 3.1.
Consider `CCCCc1nc(SCc2ccc(-c3ccccc3-c3nn[nH]n3)cc2)c2ccccc2n1`, for which the results for the IC50 against Phosphodiesterase 3 and against Phosphodiesterase 4 were 8000 nM and 2900 nM, respectively.
As for `Cc1nc(C)c2c(n1)N(Cc1ccc(-c3ccccc3-c3nnn[nH]3)cc1)C(=O)CC2` [TASOSARTAN], the Relative binding affinity in data set [4] turned out to be 20. The compound also showed a half-life in [5] of 11 h. Further, the IC50 in data set [2] was found to be 32 nM. Besides, the AT1 affinity in data set [7] was 1.2 nM l-1. In addition, in [9], the pKa amounted to 4.
Regarding `Cc1nc(C(=O)O)nc2c1CCC(=O)N2Cc1ccc(-c2ccccc2-c2nnn[nH]2)cc1`, the IC50 in data set [2] is 11 nM.

The term pKa denotes the negative logarithm of the acid dissociation constant. Read a high pKa as a group that holds its proton tightly. One may read the IC50 as the concentration at which inhibition is half-maximal. A word on the EC50: it is the concentration that produces a half-maximal response. A high value points to a less potent agent. As usually defined, the half-life is the time in which the quantity being followed falls by half. A higher half-life goes with slow decline. What is called Ki is a measure of affinity in units of concentration, obtained from inhibition or displacement.
